# According to US10695347B2, “Pyrimidine derivative and use thereof” (Hubei Bio-Pharmaceutical Industrial Technological Institute …, priority 2015, dated 2020):
# Key:
# ALK L1196M = ALK L1196M (Homo sapiens (Human), UniProt Q9UM73, L1196M); experiment: Inhibition of ALK L1196M kinase activity (Caliper mobility shift); assay type: biochemical
# Protocol: (§1) Inhibition of Compound I Against ALK Kinase Activity
# (§2) • I. Preparation of 1× kinase buffer and stop buffer
# (§3) 1) 1× Kinase Buffer • 50 mM HEPES. pH 7.5 • 0.0015% Brij-35 • 10 mM MgCl2 • 2 mM DTT • 2) stop buffer • 100 mM HEPES, pH 7.5 • 0.015% Brij-35 • 0.2% Coating Reagent #3 • 50 mM EDTA
# (§4) 2. Prepare a Compound Solution to be Tested • Step 2.1 Dilute the compound to 50× of the final desired highest inhibitor concentration in reaction by 100% DMSO. Transfer 100 μl of this compound dilution to a well in a 96-well plate. For example, if desired highest inhibitor concentration is 1 μM, then prepare 50 μM of compound DMSO solution in this step.
# (§5) Step 2.2 Further dilute said compound dilution by 3-fold in series, thus obtain 10 concentrations.
# (§6) Step 2.3 Add 100 μl of 100% DMSO to two empty wells for no compound control and no enzyme control in the same 96-well plate. Mark the plate as source plate.
# (§7) Step 2.4 Prepare an intermediate plate
# (§8) Transfer 10 μl of each compound from the source plate to a new 96-well plate as the intermediate plate.
# (§9) Add 90 μl of 1× kinase buffer to each well of the intermediate plate. Mix the compounds in the intermediate plate for 10 min on a shaker.
# (§10) Transfer 5 μl of each well from the 96-well intermediate plate to a 384-well plate in duplicate. For example, A1 of the 96-well plate is transferred to A1 and A2 of the 384-well plate. A2 of the 96-well plate is transferred to A3 and A4 of the 384-well plate, and so on.
# (§11) 4.1 Prepare a 2.5× kinase solution
# (§12) Add kinase in 1× kinase base buffer, thus obtain the 2.5× kinase solution.
# (§13) 4.2 Prepare a 2.5× peptide solution
# (§14) 4.3 In each well of the assay plate obtained in step 3, there was 5 μL of the compound in 10% DMSO.
# (§15) 4.4 Transfer the 2.5× enzyme solution to the assay plate.
# (§16) 4.5 Incubate at room temperature for 10 min.
# (§17) 4.6 Transfer the 2.5× peptide solution to the assay plate.
# (§18) 4.7 Kinase reaction and stop
# (§19) Incubate at 28° C. for 20 min.
# (§20) Add 25 μl of stop buffer to stop reaction.
# (§21) Conversion rate of the kinase was read via the Caliper.
# (§22) 6.1 Copy conversion data from Caliper program.
# (§23) 6.2 Convert conversion values to inhibition values with the following formula: Percent inhibition=(max−conversion)/(max−min)*100
# (§24) where “max” stands for DMSO control; and “min” stands for low control.
# (§25) 6.3 Fit the data in XLfit excel add-in version 4.3.1 and obtain IC50 values according to the following formula: Y=Bottom+(Top−Bottom)/[…].
# Ba/F3 EML4-ALK cells = experiment: Suppression of Ba/F3 EML4-ALK cell proliferation (CellTiter-Glo); assay type: cell-based; conditions: Ba/F3 EML4-ALK, 72 h; 3 days incubation
# Excerpt: Cell media: RPMI-1640 medium, fetal calf serum (FCS), antibiotics (Penicillin-Streptomycin), IL-3, puromycin
# Cell line: Ba/F3 EML4-ALK
# Assay reagent: Cell Viability Assay Kit Celliter-Glo
# (§26) Others: a 96-well plate, a 384-well plate, DMSO
# (§27) As the amount of ATP can indicate the number of living cells directly, the living cells in medium are able to be quantified by determining the ATP level. In our experiment, we use a cell viability assay kit to quantify the living cells, which utilizes UltraGlow luciferase to generate a stable glow signal in the presence of ATP which is produced by metabolism of living cells, such as respiration. Specifically, a reagent CellTiter-Glo™ was added into cell culture media, and then the luminescent intensity was determined to measure proliferation of cells, as the luminescent intensity is in direct proportion to the ATP level which correlates positively to the number of living cells. The test plate was assayed by the Envision (PE).
# (§28) Step 3.1 Culturing test cells
# Ba/F3 EML4-ALK cells were planted into a 384-well plate, with almost 300 cells per well. The plate was placed in a carbon dioxide incubator overnight.
# (§29) Step 3.2 Preparation of the compounds to be tested
# 10 concentrations of the working solutions were obtained in duplicate by dilution in 3-fold series with BRAVO.
# Step 3.3 Mixing the compound to be tested with the test cells
# The compounds to be tested at individual working concentrations were transferred into corresponding wells in the 384-well plate in the step 3.1, with 5 μM as the initial working concentration, and then the 384-well plate was incubated in the carbon dioxide incubator for 3 days.
# To each well of the 384-well plate was added the reagent Promega CellTiter-Glo, and incubated at room temperature for 10 minutes to stabilize the luminescence signal. The results were read by the PerkinElmer Envision Multi-mode Plate Reader.
# Karpas299 cells = experiment: Suppression of Karpas299 cell proliferation (CellTiter-Glo); assay type: cell-based; conditions: Homo sapiens, KARPAS-299, 72 h; 3 days incubation; read-out: Inhibition activity on Karpas299 cells IC50
# Protocol: as §27, with “culture” for “medium”, “living-cell testing” for “cell viability assay”, “tested with” for “assayed by”
# Cell media: RPMI-1640 medium, fetal calf serum (FCS), antibiotics (Penicillin-Streptomycin)
# Assay reagent: Cell Viability Assay Kit CellTiter-Glo
# as §26, §28
# Karpas 299 cells were plated into a black 384-well plate, with 2500 cells in 45 μl cell suspension per well. The plate was placed in a carbon dioxide incubator overnight.
# as §29
# Each compound to be tested was dissolved in DMSO at 10 mM as the stock solution, which was left in a nitrogen-gas tank for storage.
# After dilution of 10 μL stock solution (10 mM) into 2.5 mM as a starting working solution, 10 concentrations of the working solutions from 5 μM to 0.25 nM were obtained in duplicate by further dilution in 3-fold series with ECHO.
# Step 3.3 Mixing the compound with the test cells
# To each well of a new 96-well plate were added 49 μl medium and 1 μl of the compounds to be tested at individual working concentrations (10 concentrations in total). After oscillation,
# 5 μl of mixture in each well of the 96-well plate was transferred into corresponding wells in the 384-well plate in the step 3.1. The 384-well plate was incubated in the carbon dioxide incubator for 3 days.
# To each well of the 384-well plate was added […] reagent Promega CellTiter-Glo. and incubated at room temperature for 10 minutes to stabilize the luminescence signal. The results were read with the PerkinElmer Envision Multi-mode Plate Reader.
# ALK = ALK (Homo sapiens (Human), UniProt Q9UM73); experiment: Inhibition of ALK kinase activity (Caliper mobility shift); assay type: biochemical
# ALK, sequence (Q9UM73 19-1620): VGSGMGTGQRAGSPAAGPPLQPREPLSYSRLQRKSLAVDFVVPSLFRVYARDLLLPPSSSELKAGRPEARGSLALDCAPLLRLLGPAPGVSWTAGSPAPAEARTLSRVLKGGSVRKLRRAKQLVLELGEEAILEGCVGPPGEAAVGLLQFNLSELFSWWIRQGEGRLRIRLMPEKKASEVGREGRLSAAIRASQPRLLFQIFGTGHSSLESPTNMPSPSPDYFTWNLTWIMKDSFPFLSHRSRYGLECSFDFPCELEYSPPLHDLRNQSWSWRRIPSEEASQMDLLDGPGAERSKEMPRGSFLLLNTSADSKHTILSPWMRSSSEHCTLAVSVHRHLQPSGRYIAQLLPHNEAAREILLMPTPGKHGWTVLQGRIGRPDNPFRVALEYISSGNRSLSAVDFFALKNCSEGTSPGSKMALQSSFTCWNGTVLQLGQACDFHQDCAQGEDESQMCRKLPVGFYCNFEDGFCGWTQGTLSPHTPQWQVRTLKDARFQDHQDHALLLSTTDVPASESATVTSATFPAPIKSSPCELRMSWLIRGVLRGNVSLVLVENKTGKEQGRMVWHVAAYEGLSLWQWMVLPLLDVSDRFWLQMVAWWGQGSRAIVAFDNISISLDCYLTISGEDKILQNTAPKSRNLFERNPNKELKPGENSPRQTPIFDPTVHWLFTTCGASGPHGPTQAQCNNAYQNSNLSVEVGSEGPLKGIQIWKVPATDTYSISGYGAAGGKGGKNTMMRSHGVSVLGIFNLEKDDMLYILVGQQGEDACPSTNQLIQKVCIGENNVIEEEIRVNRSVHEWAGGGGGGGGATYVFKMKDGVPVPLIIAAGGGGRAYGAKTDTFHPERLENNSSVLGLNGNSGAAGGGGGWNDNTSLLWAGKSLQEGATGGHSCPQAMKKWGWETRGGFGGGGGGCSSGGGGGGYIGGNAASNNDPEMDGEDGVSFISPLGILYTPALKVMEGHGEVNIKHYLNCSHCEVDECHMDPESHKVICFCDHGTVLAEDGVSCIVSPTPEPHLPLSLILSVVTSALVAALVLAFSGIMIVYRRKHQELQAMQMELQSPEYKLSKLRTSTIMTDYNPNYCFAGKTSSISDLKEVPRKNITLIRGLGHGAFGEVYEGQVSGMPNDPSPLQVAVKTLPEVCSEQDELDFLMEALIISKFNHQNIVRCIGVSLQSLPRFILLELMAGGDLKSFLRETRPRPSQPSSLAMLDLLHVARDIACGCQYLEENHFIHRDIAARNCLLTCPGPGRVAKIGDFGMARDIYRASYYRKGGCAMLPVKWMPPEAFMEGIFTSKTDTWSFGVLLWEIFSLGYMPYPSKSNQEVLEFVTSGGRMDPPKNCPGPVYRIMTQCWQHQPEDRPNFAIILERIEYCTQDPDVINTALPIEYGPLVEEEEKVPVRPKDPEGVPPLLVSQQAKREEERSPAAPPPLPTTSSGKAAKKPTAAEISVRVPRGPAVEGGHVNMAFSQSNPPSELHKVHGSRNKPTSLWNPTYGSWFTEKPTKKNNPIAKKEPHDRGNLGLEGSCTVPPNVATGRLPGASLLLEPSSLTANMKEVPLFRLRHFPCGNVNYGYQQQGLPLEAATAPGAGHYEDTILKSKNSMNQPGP
# Protocol: as §1, §2, §3, §4, §5, §6, §7, §8, §9, §10, §11, §12, §13, §14, §15, §16, §17, §18, §19, §20, §21, §22, §23, §24, §25
# ALK L1196M, sequence (Q9UM73 19-1620 L1196M): as the sequence (Q9UM73 19-1620) above, with L1178M counted along it
SMILES,IC50 (ALK L1196M),IC50 (Ba/F3 EML4-ALK cells),IC50 (Karpas299 cells),IC50 (ALK)
"CC(C)Oc1cc(N2CCC(N(C)C)CC2)ccc1Nc1ncc(Cl)c(Nc2ccsc2S(=O)(=O)C(C)C)n1 [Compound I-82, 5-chloro-N^2-(4-(4-(dimethylamino)piperidin-1-yl)-2-isopropoxyphenyl)-N^4-(2-(isopropylsulfonyl)thiophen-3-yl) pyrimidine-2,4-diamine]",< 0.001 µM,0.02 to 0.1 µM,< 0.05 µM,< 0.001 µM
"COc1cc(C2=CCN(C)CC2)ccc1Nc1ncc(Cl)c(Nc2cccnc2S(=O)(=O)C(C)C)n1 [Compound I-84, 5-chloro-N^4-(2-(isopropylsulfonyl)pyridin-3-yl)-N^2-(2-methoxy-4-(1-methyl-1,2,3,6-tetrahydropyridin-4-yl)phenyl) pyrimidine-2,4-diamine]",0.001 to 0.01 µM,0.02 to 0.1 µM,< 0.05 µM,0.001 to 0.01 µM
"COc1cc(C2=CCN(C(C)C)CC2)ccc1Nc1ncc(Cl)c(Nc2cccnc2S(=O)(=O)C(C)C)n1 [Compound I-85, 5-chloro-N^2-(4-(1-isopropyl-1,2,3,6-tetrahydropyridin-4-yl)-2-methoxyphenyl)-N^4-(2-(isopropylsulfonyl)pyridin-3-yl) pyrimidine-2,4-diamine]",0.001 to 0.01 µM,0.02 to 0.1 µM,< 0.05 µM,0.001 to 0.01 µM
"COc1cc(C2=CCN(C(C)C)CC2)ccc1Nc1ncc(Cl)c(Nc2ccsc2S(=O)(=O)C(C)C)n1 [Compound I-86, 5-chloro-N^2-(4-(1-isopropyl-1,2,3,6-tetrahydropyridin-4-yl)-2-methoxyphenyl)-N^4-(2-(isopropylsulfonyl)thiophen-3-yl) pyrimidine-2,4-diamine]",< 0.001 µM,< 0.02 µM,< 0.05 µM,< 0.001 µM
COc1cc(N2CCN(C(C)C)CC2)c(C)cc1Nc1ncc(Cl)c(Nc2cccnc2S(=O)(=O)C(C)C)n1 [Compound I-88],0.001 to 0.01 µM,0.02 to 0.1 µM,0.05 to 0.1 µM,0.001 to 0.01 µM
CC(C)Oc1cc(N2CCC(N(C)C)CC2)ccc1Nc1ncc(Cl)c(Nc2cccnc2S(=O)(=O)C(C)C)n1 [Compound I-91],0.001 to 0.01 µM,< 0.02 µM,0.05 to 0.1 µM,0.001 to 0.01 µM
CCOc1cc(N2CCC(N(C)C)CC2)ccc1Nc1ncc(Cl)c(Nc2cccnc2S(=O)(=O)C(C)C)n1 [Compound I-92],0.001 to 0.01 µM,< 0.02 µM,0.05 to 0.1 µM,0.001 to 0.01 µM
"COc1cc(N2CCC(N(C)C)CC2)c(C)cc1Nc1ncc(Cl)c(Nc2cccnc2S(=O)(=O)C(C)C)n1 [Compound I-98, 5-chloro-N^2-(4-(4-(dimethylamino)piperidin-1-yl)-2-methoxy-5-methylphenyl)-N^4-(2-(isopropylsulfonyl)pyridin-3-yl) pyrimidine-2,4-diamine]",< 0.001 µM,0.02 to 0.1 µM,< 0.05 µM,< 0.001 µM
"CC(C)S(=O)(=O)c1ncccc1Nc1nc(Nc2ccc(N3CCC(N(C)C)CC3)cc2OC(F)F)ncc1Cl [Compound I-100, 5-chloro-N^2-(2-(difluoromethoxy)-4-(4-(dimethylamino)piperidin-1-yl)phenyl)-N^4-(2-(isopropylsulfonyl)pyridin-3-yl) pyrimidine-2,4-diamine]",0.001 to 0.01 µM,0.02 to 0.1 µM,< 0.05 µM,0.001 to 0.01 µM
"Cc1cc(Nc2ncc(Cl)c(Nc3ccccc3S(=O)(=O)C(C)C)n2)c(OC(F)F)cc1N1CCC(N(C)C)CC1 [Compound I-102, 5-chloro-N^2-(2-(difluoromethoxy)-4-(4-(dimethylamino)piperidin-1-yl)-5-methylphenyl)-N^4-(2-(isopropylsulfonyl)phenyl) pyrimidine-2,4-diamine]",< 0.001 µM,< 0.02 µM,0.05 to 0.1 µM,0.001 to 0.01 µM
COc1cc(CN2CCC(N(C)C)CC2)ccc1Nc1ncc(Cl)c(Nc2ccccc2S(=O)(=O)C(C)C)n1 [Compound I-109],0.001 to 0.01 µM,< 0.02 µM,0.05 to 0.1 µM,0.001 to 0.01 µM
